{
  "source": "paper PMC5055185",
  "about": "“Dual pharmacological inhibition of glutathione and thioredoxin systems synergizes to kill colorectal carcinoma stem cells” (Cancer Medicine, 2016)",
  "key": {"[1]": {"system": "OUMS‐36 embryonic fibroblasts", "assay": "intracellular ROS, CellROX Deep Red flow cytometry, OUMS-36", "format": "cell-based, human", "details": "treated 1 h (menadione 100 μmol/L, 30 min)", "experimental": "(§1) In order to estimate the effect of each inhibitor described above, intracellular reactive oxygen species (ROS) were measured using CellROX™ Deep Red reagent (Molecular Probes). Briefly, cells were seeded on 6‐well plates at 1 × 10^6 cells per well. After cells reached 90% confluence, cells were treated with designated reagents for 1 h. CellROX™ Deep Red reagent was added at a final concentration of 5 μmol/L to the culture medium and then incubated for 30 min at 37°C. Subsequently, the medium was removed and the cells were washed with PBS and detached using 0.25% trypsin‐EDTA. The resulting fluorescence was measured using a FACS Calibur flow cytometer (Becton Dickinson, Franklin Lakes, NJ). Menadione (100 μmol/L) was added 30 min before CellROX™ Deep Red reagent treatment as a reference ROS inducer. […] CD44v9 positivity of CTOS cells was analyzed as follows: Cancer spheroids were dispersed with serial treatments of TrypLE™ (20 min, GIBCO) and Accumax™ (10 min, Innovative Cell Technologies, San Diego, CA). Cell surface CD44v9 was stained with CD44v9 antibody (Cosmobio) as well as PE‐conjugated anti‐rat IgG2a (Becton Dickinson). The fluorescence was measured using a FACS Calibur flow cytometer (Becton Dickinson). Since CTOSs contained abundant auto‐fluorescent cells, we defined FL2^+FL1^− cells as authentic PE‐positive (Fig. S4). Thus, CD44v9‐positive rate was defined as FL2^+FL1^−/total live cells and CD44v9‐positive fraction was further gated and split between CD44v9^low and CD44v9^high (Fig. S4), to calculate the mean fluorescent intensity of CD44v9^high fraction.\n(§2) One hour after each drug treatment, cells were stained with CellROX DeepRed and intracellular ROS were quantified with FACS. Upper: histogram of fluorescent signal is represented. Lower. representative mean fluorescent intensity scores are shown. Note that without drug treatment (Control), intracellular ROS is higher in OUMS36 and TIG3 (embryonic fibroblasts) but lower in DLD-1 and HCT116 (CRC cell lines). ROS in DLD-1 was increased by auranofin. ROS in HCT116 was increased by all the inhibitors tested. […]"}, "[2]": {"system": "TIG‐3 embryonic fibroblasts", "assay": "intracellular ROS, CellROX Deep Red flow cytometry, TIG-3", "format": "cell-based, human", "details": "treated 1 h (menadione 100 μmol/L, 30 min)", "experimental": "as §1, §2"}, "[3]": {"system": "HCT116 CRC cell line", "assay": "intracellular ROS, CellROX Deep Red flow cytometry, HCT116", "format": "cell-based, human", "details": "treated 1 h (menadione 100 μmol/L, 30 min)", "experimental": "as §1\nOne hour after each drug treatment, cells were stained with CellROX DeepRed and intracellular ROS were quantified with FACS. Upper: histogram of fluorescent signal is represented. Lower. representative mean fluorescent intensity scores are shown. Note that without drug treatment (Control), intracellular ROS is higher in OUMS36 and TIG3 (embryonic fibroblasts) but lower in DLD-1 and HCT116 (CRC cell lines). ROS in DLD-1 was increased by auranofin. ROS in HCT116 was increased by all the inhibitors tested. Menadione was used as a reference chemical to increase ROS."}, "[4]": {"system": "NRF2 target genes in colorectal CTOSs", "assay": "qRT-PCR of NRF2 and TP53 target genes in colorectal CTOSs", "format": "cell-based, human", "details": "higher dose (auranofin 4, CB83 25, piperlongumine 10 μmol/L) for 24 h", "experimental": "Total RNA was purified using RNAiso Plus (Takara, Osaka, Japan). Reverse transcription was performed using PrimeScript™ with gDNA Eraser (Takara). For quantifying the copy number of each mRNA, we used a StepOne™ Real‐Time PCR System (Applied Biosystems, Waltham, MA) and the Taqman® method. Data were calculated according to the modified delta‐cycle of threshold (ΔCT) method. Normalized Log2 expression was defined as follows: (Log2 expression of a gene of interest) = 30 (arbitrary constant) + (CT of 18S rRNA) − (CT of a gene of interest). We used Log2 parameter for statistical analysis because mRNA expression follows a log‐normal distribution, whereas ΔCT follows normal distribution. A gene‐specific fluorescent probe was designed using a web‐based program (https://qpcr.probefinder.com/organism.jsp). […] Gene‐specific Taqman® probes were purchased from Life Technologies, (Waltham, MA, for Cat#, see Table S1 SpreadSheet2). For PCR, Thunderbird® Probe qPCR mix (Toyobo, Osaka, Japan) was used and the PCR conditions consisted of 40 cycles of two steps (95°C for 15 sec and 60°C for 50 sec).\nIn order to judge the effect of drug treatments on gene expression, a repeated measures one‐way analysis of variance (ANOVA) was used to determine the variance of Log2 expression from four different groups (untreated, auranofin, CB83, and piperlongumine) using SPSS. Subsequently, the effect of each drug was determined by a paired t test as a post hoc analysis. The P‐values < 0.05 were defined as statistically significant.\nIn order to estimate NRF2 compensation induced by pharmacological inhibition of TXNRD (auranofin), G6PD (CB83), or GSTπ (piperlongumine), we quantified gene expression of NRF2 target genes. Activation of NRF2 protein was confirmed by NRF2 phosphorylation (Fig. S5A)."}, "[5]": {"system": "phosphorylated NRF2 in colorectal CTOSs", "assay": "NRF2 phosphorylation by western blotting, colorectal CTOSs", "format": "cell-based, human", "details": "24 hours, Auranofin 2µM, Piperlongumine 5µM, CB83 12.5 µM", "experimental": "From colorectal CTOS, whole‐cell proteins were dissolved with solubilizer (7 mol/L urea, 2 mol/L thiourea, 2% Triton X‐100, Wako) and the entangled genomic DNA was sheared by sonication for 30 min. Procedures for immunoblotting have been described elsewhere 6, 10. Primary antibodies used in this study are as follows: phosphorylated NRF2 from Abcam (#76026) and Histone H3 from Cell Signaling Technologies (#4499, Danvers, MA). Phosphorylation of NRF2 is well correlated with nuclear accumulation in HCCs 6. Representative data are shown in the figures; all experiments were reproduced at least twice with different passage points.\nColorectal CTOSs were incubated with each inhibitor for 24 hours. Whole cell proteins were extracted and each well was loaded with same amount of proteins (40 µg for NRF2 and 10 µg for H3). Phosphorylation of NRF2 was measured by western blotting. Blotting for histone H3 serves as loading control."}, "[6]": {"system": "CRC cell lines", "set-up": "method as in PMID 25591719", "details": "cited from earlier work"}, "[7]": {"system": "DLD‐1 CRC cell line", "assay": "intracellular ROS, CellROX Deep Red flow cytometry, DLD-1", "format": "cell-based, human", "details": "treated 1 h (menadione 100 μmol/L, 30 min)", "experimental": "as §1, with “Since CTOSs contained abundant auto‐fluorescent cells, we defined FL2^+FL1^− cells as authentic PE‐positive (Fig. S4). Thus, CD44v9‐positive rate was defined as FL2^+FL1^−/total live cells and CD44v9‐positive fraction was further gated and split between CD44v9^low and CD44v9^high (Fig. S4), to calculate the mean fluorescent intensity of CD44v9^high fraction.” left out\nOne hour after each drug treatment, cells were stained with CellROX DeepRed and intracellular ROS were quantified with FACS. […]"}},
  "data": [
    {"smiles": "Cc1ccc(C)c(S(=O)(=O)Nc2ccc(O)c3ccccc23)c1", "note": "[CB83]", "values": [
      {"measurement": "intracellular ROS response", "setting": "[1]", "value": "no ROS increase"},
      {"measurement": "intracellular ROS response", "setting": "[2]", "value": "no ROS increase"},
      {"measurement": "intracellular ROS response", "setting": "[3]", "value": "increase of ROS"},
      {"measurement": "TXNRD1 mRNA expression change", "setting": "[4]", "value": "up‐regulated"},
      {"measurement": "NRF2 phosphorylation", "setting": "[5]", "value": "efficiently phosphorylated"},
      {"measurement": "GSH/GSSG ratios", "setting": "[6]", "value": "failed to alter"},
      {"measurement": "NADPH/NADP+ ratios", "setting": "[6]", "value": "decreased"}
    ]},
    {"smiles": "CC1=CC(=O)c2ccccc2C1=O", "note": "[menadione, Menadione]", "values": [
      {"measurement": "intracellular ROS response", "setting": "[1]", "value": "no ROS increase"},
      {"measurement": "intracellular ROS response", "setting": "[2]", "value": "no ROS increase"},
      {"measurement": "intracellular ROS response", "setting": "[7]", "value": "increase of ROS"},
      {"measurement": "intracellular ROS response", "setting": "[3]", "value": "increase of ROS"}
    ]}
  ]
}
